Broadly, the IC50 is the concentration needed to halve the response being measured.

The results in this text go back to ChEMBL document CHEMBL1158716, “Sesquiterpenoids and plasmin-inhibitory flavonoids from Blumea balsamifera” (J Nat Prod, 2005).

Test [1] has as its target Plasminogen (Homo sapiens, UniProt P00747). Nature of the test: Inhibition of plasmin.
Test [2] has as its system Jurkat. Nature of the test: Cytotoxicity against human Jurkat cells. Type of test: functional, cell-based.

Chain of Plasminogen (P00747 97-580 limits assumed): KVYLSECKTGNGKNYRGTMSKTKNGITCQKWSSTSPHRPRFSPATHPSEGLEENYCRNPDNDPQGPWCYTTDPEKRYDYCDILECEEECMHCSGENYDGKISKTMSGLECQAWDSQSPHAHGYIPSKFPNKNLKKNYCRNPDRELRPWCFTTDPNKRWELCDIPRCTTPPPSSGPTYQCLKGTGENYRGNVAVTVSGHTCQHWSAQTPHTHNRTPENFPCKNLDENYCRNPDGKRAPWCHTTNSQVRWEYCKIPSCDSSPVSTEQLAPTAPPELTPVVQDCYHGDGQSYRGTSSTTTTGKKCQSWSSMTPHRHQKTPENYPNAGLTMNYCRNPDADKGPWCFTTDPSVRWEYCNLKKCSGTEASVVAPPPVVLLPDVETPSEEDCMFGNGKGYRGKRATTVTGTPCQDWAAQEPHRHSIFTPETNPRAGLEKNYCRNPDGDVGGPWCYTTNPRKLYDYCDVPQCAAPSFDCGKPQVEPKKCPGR
Chain of Plasminogen (P00747 581-810 limits assumed): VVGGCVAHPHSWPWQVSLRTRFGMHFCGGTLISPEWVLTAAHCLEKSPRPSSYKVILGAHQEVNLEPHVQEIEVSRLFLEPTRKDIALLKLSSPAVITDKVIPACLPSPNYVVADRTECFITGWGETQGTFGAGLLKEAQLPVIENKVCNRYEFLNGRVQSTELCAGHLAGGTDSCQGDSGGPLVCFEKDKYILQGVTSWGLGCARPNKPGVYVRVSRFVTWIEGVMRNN

On to `COc1cc(O)c2c(=O)c(OC)c(-c3ccc(O)c(O)c3)oc2c1`, for which the IC50 in test [1] was found to be 1500 nM.

In test [1], `COc1cc(O)c2c(=O)cc(-c3ccc(O)c(O)c3)oc2c1` gave an IC50 of 2300 nM.

For the compound `C/C1=C\C(=O)[C@@H](C(C)C)C[C@@H](OC(=O)[C@]2(C)O[C@@H]2C)[C@](C)(O)C(=O)CC1`, the IC50 in test [2] came to 26200 nM.

`C=C1CC[C@@]2(O)[C@H]1C(=O)[C@@H](C(C)C)C[C@@H](OC(=O)/C(C)=C\C)[C@]2(C)O` returned an IC50 in test [2] of over 70000 nM.

For `CC(=O)N[C@@H](CC(C)C)C(=O)N[C@@H](CC(C)C)C(=O)N[C@H](C=O)CCCNC(=N)N` [LEUPEPTIN], the 50% inhibitory concentration (IC50) in test [1] was 1200 nM.
